The record followed here is patent publication US4563446A, “Thromboxane synthetase inhibiting 3-(1-alkenyl) pyridines” (Takeda Chemical Industries, Ltd., priority 1983, dated 1986).

Tested on in the first data set: not listed separately
The experiment in a line: Oral toxicity. The class given is in vivo. To be noted: 1000 mg/kg/day, five rats, 14 days. From the text: Moreover, the compounds of the invention are very low in toxicity in rats, dogs and so forth and characterized by broad margin between the toxic dose and the therapeutically effective dose. […] Furthermore, the compounds (I) of the invention produced long-lasting pharmacological effects in vivo, so that their TXA2 synthetase inhibiting activity is expected to be retained stably for a prolonged period of time. Accordingly, the compounds provided by the invention are used in low doses in mammals, including humans, for the prevention or treatment of thrombosis due to TXA2 -induced platelet aggregation, ischemic diseases due to vasospasm in heart, brain, periphery and circulatory system (e.g. myocardial infarction, stroke, renal infarction, pulmonary infarction, infarction at some other site, digestive tract ulcer) and diseases due to imbalance of the ratio of TXA2 /PGI2, with low incidence of adverse effects resulting from long-term continuous use thereof. They are administered orally in the form of tablets, capsules, powders or granules, for instance, or parenterally in the form of injections or pellets. Generally, they are used in a daily oral dose of 20-200 mg per adult human or a daily parenteral dose of 10-100 mg per adult human, respectively in 1-3 divided doses.
With `OCCCCC/C=C(\c1ccccc1)c1cccnc1` [Id-14, (E)-7-phenyl-7-(3-pyridyl)-6-hepten-1-ol], the Deaths entry is listed as “no rat was dead for 14 days”.

In another data set the test system is TXA2 synthetase. The experiment in a line: Inhibitory effect on blood thromboxane A2 (TXA2) production in rats. The class given is in vivo, Male Sprague-Dawley rats. Particulars: 10 mg/kg oral, 2 hours after administration; serum TXB2 by radioimmunoassay, versus control. Here is the method: Male Sprague-Dawley rats aged 7 to 8 weeks were used in groups of 5 individuals. Rats in the dosing group received by oral administration of 2 ml/kg of an aqueous suspension of 10 mg/kg of the test compound prepared with a small amount of gum arabic. To rats in the control group, a suspension of gum arabic only was similarly administered. Two hours after administration, each rat was anesthetized with pentobarbital sodium (50 mg/kg, intraperitoneal) and 1 ml of blood was taken from the abdominal aorta. The blood was allowed to stand at 25° C. for 90 minutes, after which it was centrifuged at 15,000 rpm for 2 minutes to separate the serum. The serum thromboxane B2 (TXB2) which was a stable metabolite of TXA2 produced in the blood during the standing procedure was determined by radioimmunoassay (Shibouta et al., Biochemical Pharmacol. 28, 3601, 1979). The percent inhibition of TXA2 synthetase was calculated from the difference in TXB2 production between the control and dosing groups.
Take `NC(=O)CCCC/C=C(\c1ccccc1)c1cccnc1` [Id-43, (E)-7-phenyl-7-(3-pyridyl)-6-heptenamide]: the “% inhibition of TXA2 synthetase” value was determined as 93%. On the same count and under the same terms, to `O=C(CCCC/C=C(\c1ccccc1)c1cccnc1)Nc1ccccc1` [Id-44, N-phenylamide of (E)-7-phenyl-7-(3-pyridyl)-6-heptenoic acid] belongs 94%; to `COC(=O)CCCC/C=C(\c1ccccc1)c1ccc[n+]([O-])c1` [Ie-6], 80%.

As to `O=[N+]([O-])OCCCCC/C=C(\c1ccccc1)c1cccnc1` [Id-32, 1-nitroxy-(E)-7-phenyl-7-(3-pyridyl)-6-heptene], the “% inhibition of TXA2 synthetase” value came to 94%. Same read-out and setting: to `CC(=O)OCCCCC/C=C(\c1ccccc1)c1cccnc1` [Id-19, 1-acetoxy-(E)-7-phenyl-7-(3-pyridyl)-6-heptene] belongs 94%; to `OCCCCC/C=C(\c1cccnc1)c1cccs1` [Id-17, (E)-7-(3-pyridyl)-7-(2-thienyl)-6-hepten-1-ol], 95%; to `O=COCCCCC/C=C(\c1ccccc1)c1cccnc1` [Id-20, 1-formyloxy-(E)-7-phenyl-7-(3-pyridyl)-6-heptene], 87%. Still for that read-out and setting: to `OCCCCC/C=C(/c1ccccc1)c1cccnc1` [Id-15] belongs 87%. On to `CC(C)(C)[Si](C)(C)OCCCCC/C=C(\c1ccccc1)c1cccnc1` [Id-48, dimethyl-t-butylsilyl ether of (E)-7-phenyl-7-(3-pyridyl)-6-hepten-1-ol], for which the “% inhibition of TXA2 synthetase” value was found to be 91%. The same measure, in the same setting: to `COCCCCC/C=C(\c1ccccc1)c1cccnc1` [Id-37, (E)-1-methoxy-7-phenyl-7-(3-pyridyl)-6-heptene] belongs 92%; to `O=C(O)CCCC/C=C(/c1ccc[n+]([O-])c1)c1cccs1` [Ie-5], 90%; to `O=C(Nc1ccccc1)OCCCCC/C=C(\c1ccccc1)c1cccnc1` [Id-27, 1-phenylaminocarbonyloxy-(E)-7-phenyl-7-(3-pyridyl)-6-heptene], 87%.

In the case of `O=C(O)CCCCCCCCC/C=C(\c1ccccc1)c1cccnc1` [Id-9, (E)-12-phenyl-12-(3-pyridyl)-11-dodecenoic acid], the “% inhibition of TXA2 synthetase” value worked out at 90%. Still for that read-out and setting: to `O=C(O)CCCC/C=C(\c1ccccc1)c1ccc[n+]([O-])c1` [Ie-2, (E)-7-phenyl-7-(1-oxide-3-pyridyl)-6-heptenoic acid] belongs 85%; to `CNC(=O)OCCCCC/C=C(\c1ccccc1)c1cccnc1` [Id-24, 1-methylaminocarbonyloxy-(E)-7-phenyl-7-(3-pyridyl)-6-heptene], 90%. The same measure, in the same setting: to `O=C(O)CCCCCCCCC/C=C(\c1ccccc1)c1ccc[n+]([O-])c1` [Ie-4] belongs 85%; to `S=C(Nc1ccccc1)OCCCCC/C=C(\c1ccccc1)c1cccnc1` [Id-28, 1-phenylaminothiocarbonyloxy-(E)-7-phenyl-7-(3-pyridyl)-6-heptene], 79%; to `CCCCC/C=C(\c1ccccc1)c1ccc[n+]([O-])c1` [Ie-9], 68%. As to `[O-][n+]1cccc(/C(=C/CCCCCO)c2ccccc2)c1` [Ie-7, (E)-7-phenyl-7-(1-oxide-3-pyridyl)-6-hepten-1-ol], the “% inhibition of TXA2 synthetase” value turned out to be 80%. Same read-out and setting: to `OCCCCC/C=C(\c1ccccc1)c1cccnc1` [Id-14, (E)-7-phenyl-7-(3-pyridyl)-6-hepten-1-ol] belongs 92%; to `OCCCCC/C=C(\c1cccnc1)c1cccs1` [Id-18], 72%; to `Cc1ccc(S(=O)(=O)NC(=O)OCCCCC/C=C(\c2ccccc2)c2cccnc2)cc1` [Id-29, 1-(p-toluenesulfonyl)aminocarbonyloxy-(E)-7-phenyl-7-(3-pyridyl)-6-heptene], 94%. Regarding `CCCCNC(=O)OCCCCC/C=C(\c1ccccc1)c1cccnc1` [Id-25, 1-(n-butyl)aminocarbonyloxy-(E)-7-phenyl-7-(3-pyridyl)-6-heptene], the “% inhibition of TXA2 synthetase” value was 83%.

Take `CCCCC/C=C(\c1ccccc1)c1cccnc1` [Id-5, (E)-1-phenyl-1-(3-pyridyl)-1-heptene]: the “% inhibition of TXA2 synthetase” value is 73%. The same measure, in the same setting: to `O=C(Nc1ccccc1)OCCCCC/C=C(\c1ccccc1)c1ccc[n+]([O-])c1` [Ie-8] belongs 80%; to `O=C(O)CCCC/C=C(/c1ccccc1)c1ccc[n+]([O-])c1` [Ie-3], 70%.
